US6797698B1, “Method of treating prolonged critical illness and other conditions having a similar neuroendocrine pattern” (K.U. Leuven Research & Development, priority 1998, dated 2004)

Tests used:
[1] = system: GH secretion and GH-dependent parameters; experiment: 21 h (21-45 h) infusion in protracted critical illness: GH secretion and GH-dependent parameters; assay type: in vivo, human
Procedure: The inventors have also shown that infusion of GHRP-2 for 21 h in this condition increases pulsatile GH secretion >6-fold, associated with increases in IGF-I, IGFBP-3 and ALS. […] This observation strongly favors the presence of active feedback inhibition preventing overcorrection of the somatotropic axis with this strategy. Treatment with high doses of recombinant human GH has recently shown to increase morbidity and mortality of critical illness. The inability to overtreat with GH-secretagogues is an important advantage over exogenous GH, especially in the vulnerable critically ill elderly.

[2] = system: catabolism; experiment: LHRH effect on catabolism resulting from testosterone deficiency; details: in vivo
Text: Optionally the administration of GHRP and TRH can be supplemented with Luteinizing Hormone Releasing Hormone (LHRH). A shortage of pulsatile LH secretion can lead to testosterone deficiency in males, which in turn can cause an increase in catabolism.

[3] = system: TSH secretion and thyroid hormone levels; experiment: 21 h (21-45 h) infusion in protracted critical illness: TSH secretion and thyroid hormones; assay type: in vivo, human; details: 21 h infusion

GHRP-2 was tested, and the “ALS (in words)” value ([1]; infusion for 21 h) was “increases”, the “IGF-I (in words)” value ([1]; infusion for 21 h) was “increases” and the “IGFBP-3 (in words)” value ([1]; infusion for 21 h) was “increases”. The “increase in pulsatile GH secretion” value ([1]; infusion for 21 h) was > 6 fold.
In the case of “Luteinizing Hormone Releasing Hormone (QHWSYGLRPG; Gonadoliberin-1; UniProt P01148 24-33, looked up) [LHRH, Luteinizing Hormone Releasing Hormone, optional supplement to GHRP and TRH]”, the “effect on catabolism that results from testosterone deficiency (in words)” value [2] is reported as “no effect”.
`NC(=O)[C@@H]1CCCN1C(=O)[C@H](Cc1cnc[nH]1)NC(=O)[C@@H]1CCC(=O)N1` [TRH, Thyroid Releasing Hormone] was tested, and the “TSH secretion (in words)” value [3] was “increasing”, the “thyroid hormone levels (in words)” value [3] was “increasing” and the “GH-dependent parameters (in words)” value ([1]; 21 h infusion) was “did not alter”.
